Assay results published in ChEMBL document CHEMBL3507680, “University of Dundee, Gates Library screen for HepG2 cell viability”.

assay: Human HepG2 cell viability assay in 384 well format; type: toxicity, cell-based; parameters: dose 125 nL, time 70.5 hour; cytotoxicity at 70.5 h: concentration not given beside the values; settings: HepG2 cells, read-out: Inhibition

SMILES	cytotoxicity at 70.5 h
CCC(CC)c1cc(CNC(=O)N2CCN(CC)CC2)on1	-2.19%
N#Cc1nccnc1N1CCC(OCCCc2ccccc2)C1 (configuration not stated)	-6.29%
CC1c2ncc(CN3CCN(C)CC3)n2CCN1Cc1ccccn1 (configuration not stated)	-0.798%
Cc1cc(-c2cnc(NC3CCCC3)nc2-c2ccc(C)o2)on1	-5.77%
Cc1cnc(C(=O)NCc2cccnc2OC(C)C)cn1	21%
CN(CC(=O)NCC(F)(F)F)C(=O)c1ccc(=O)[nH]c1	-8.21%
Cn1ccnc1CN1CCc2ncnc(N3CCCC3)c2CC1	-3.33%
Cn1c2c(ccc1=O)CC(NC(=O)c1ccsc1)CC2 (configuration not stated)	-2.29%
CCn1ccc2ccnc(CC3CN(C(=O)Cn4ccnc4C)C3)c21	-5.67%
COc1ccc(C)nc1NC(=O)Cc1c(C)nn(C)c1C	-0.279%
CCc1noc(CN(C)CCC(=O)Nc2ccccc2C#N)n1	-1.02%
CCc1ccc(CNC(=O)N2CCN(Cc3cc(C)no3)CC2)s1	19.6%
O=C1CCC(=O)N1c1nn(Cc2c(F)cccc2Cl)cc1Cl	6.93%
CCOc1ccc(C(=O)N2CCCCC2Cn2nc(C)cc2C)cn1 (configuration not stated)	21%
Cc1ccc(CN2CC[C@H]3C(=O)N(c4cccnc4)CCO[C@H]3C2)o1	-5.97%
CCOc1ccc(CN2CC[C@H]3CC[C@@H](C2)N3)cc1CO	-14%
Cc1cnn(CC2CCCN2C(=O)c2cc3ccccc3c(=O)[nH]2)c1 (configuration not stated)	-12.3%
CC(c1cccnc1)N1CCN(CCCC#N)CC1 (configuration not stated)	15%
c1cnnc(NCC2CN(CC3CCOCC3)CCO2)c1 (configuration not stated)	-5.6%
CSc1nc2cc(C)n(CC(=O)Nc3nccs3)c2c(=O)n1CC(C)C	-6.26%
N#Cc1cc(F)ccc1Cn1cnc(C2CCC2)cc1=O	1.8%
NCCN1C(=O)CC[C@H]2CN(Cc3ccc4occc4c3)CC[C@H]21	-8.13%
CN(C)Cc1nc2c(o1)CN(S(=O)(=O)c1cccs1)C2	-9.46%
CC(c1cccnc1)N(C)S(C)(=O)=O (configuration not stated)	-2.51%

SMILES	cytotoxicity at 70.5 h
CC(Oc1ccc2c(c1)OCO2)C(=O)N1CCC(N2CCCC2)CC1 (configuration not stated)	-4.56%
Fc1ccc(C2(CNCC(F)F)CCOC2)cc1 (configuration not stated)	-2.85%
COCCCNS(=O)(=O)c1cc(C)sc1C	-6.05%
Cc1nc(CN2C(=O)COC3(CCN(C(N)=O)CC3)C2C)cs1 (configuration not stated)	3.95%
N#CC1CCN(C(=O)CN2CC(c3ccccc3)CC2=O)CC1 (configuration not stated)	-4.6%
CCCN(CC(F)F)c1cc(COC)nc2ncnn12	-9.58%
CC(=O)Nc1ncc(-c2ccc(C)cc2)[nH]1	4.65%
COc1c(Br)c(CC2CC(CO)=NO2)c(Br)c2c1OCO2 (configuration not stated)	-7.56%
CC(C)CN1CC(C(=O)NCCc2c[nH]cn2)CC1=O (configuration not stated)	-0.927%
CCn1nnc2c1CCN(S(C)(=O)=O)C2COCc1ccccc1 (configuration not stated)	2.15%
CCN1CCN(c2nc(C(C)C)nc3c(C)nn(CC)c23)CC1	13.6%
CSCCC(=O)N1CCCC1c1nnc2n1CCCCC2 (configuration not stated)	-3.4%
CN1CC(Oc2ccccc2)=NC(SCC(=O)c2ccccc2)=N1	-0.583%
CCc1noc(C2CCCCN2C(=O)c2cc(C)n(C)n2)n1 (configuration not stated)	16.6%
CC(C(=O)NS(=O)(=O)Cc1cc(-c2ccccc2)no1)C1CC1 (configuration not stated)	-1.89%
COCCOC1CCN(C(=O)NCc2cc(C)oc2C)CC1	-8.46%
CNS(=O)(=O)c1ccsc1C(=O)OC	-5.92%
N#Cc1cccc(C(=O)N2CCCC(O)(CO)CC2)c1 (configuration not stated)	-4.07%
Cc1nc(Nc2ncccn2)cc(C2CCCN2CC(C)C)n1 (configuration not stated)	43.1%
CCC(Sc1ncc(CO)n1C)c1ccccc1 (configuration not stated)	-10%
CNC(=O)Cc1noc(Cc2cccc(Cl)c2)n1	-12.1%
Cc1occc1C(=O)NCc1cccnc1N(C)C	-14.4%
CCCN1CCCC2(CCN(S(=O)(=O)c3cc(C)nn3CC)C2)C1=O (configuration not stated)	-21.6%
